Values of other authors in patent publication US20230047788A1, “COMPOSITIONS COMPRISING 5-CHOLESTEN-3, 25-DIOL, 3-SULFATE (25HC3S) OR PHARMACEUTICALLY ACCEPTABLE SALT THEREOF AND AT LEAST ONE CYCLIC OLIGOSACCHARIDE” (Virginia Commonwealth University, priority 2016, published 2023).

Details: at 25°C; cited from earlier work

For `CC(O)COC[C@H]1O[C@@H]2O[C@H]3[C@H](O)[C@@H](O)[C@@H](O[C@H]4[C@H](O)[C@@H](O)[C@@H](O[C@H]5[C@H](O)[C@@H](O)[C@@H](O[C@H]6[C@H](O)[C@@H](O)[C@@H](O[C@H]7[C@H](O)[C@@H](O)[C@@H](O[C@H]8[C@H](O)[C@@H](O)[C@@H](O[C@H]1[C@H](O)[C@H]2O)O[C@@H]8COCC(C)O)O[C@@H]7COCC(C)O)O[C@@H]6COCC(C)O)O[C@@H]5COCC(C)O)O[C@@H]4COCC(C)O)O[C@@H]3COCC(C)O` (stereo partly drawn) [HP-β-CD, hydroxypropyl β-cyclodextrin], the solubility in water is listed as 50 % w/v.
